Structures can show the parent of a compound that is named as a salt.
Molecular target: T1, CDK11A (Homo sapiens, UniProt Q9UQ88)
T1 sequence (Q9UQ88 346-783): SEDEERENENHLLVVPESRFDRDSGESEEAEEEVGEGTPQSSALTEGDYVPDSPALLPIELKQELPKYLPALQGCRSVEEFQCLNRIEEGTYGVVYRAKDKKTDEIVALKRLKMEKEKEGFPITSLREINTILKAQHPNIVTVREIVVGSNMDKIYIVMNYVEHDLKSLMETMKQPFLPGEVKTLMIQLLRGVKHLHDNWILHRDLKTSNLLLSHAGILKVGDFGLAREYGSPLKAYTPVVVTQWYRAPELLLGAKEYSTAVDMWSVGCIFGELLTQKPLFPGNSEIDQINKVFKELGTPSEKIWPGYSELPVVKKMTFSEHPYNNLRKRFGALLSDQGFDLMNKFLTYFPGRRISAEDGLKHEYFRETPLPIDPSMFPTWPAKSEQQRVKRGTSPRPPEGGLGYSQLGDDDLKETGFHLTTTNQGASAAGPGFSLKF
Details: displacement of SNS-032-Atto590 probe (0.002 μM) from CDK11A-p58 (0.032 uM), fluorescence polarization
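Note: compound preincubated 30 min with CDK11A-p58, then probe added and polarization (mP) read 15 min later, 0% displacement is probe plus enzyme, 100% is probe alone.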

Description: Biochemical Kinase Inhibition Assay on CDK11 in Displacement Assay Format
Displacement Assay Format
Fluorescence Polarization (FP) experiments were carried out at room temperature using no-binding black 384-well microplates (Corning, NY), in 50 mM Tris HCl, pH 8, 10 mM MgCl2, 1 mM DTT, 1 mM CHAPS in a final volume of 60 μl. The plate reader was the Pherastar microplate reader (BMG). Polarization values were read using excitation and emission wavelengths of 590 and 675 nm, respectively. All FP values are expressed as mP units.
Compounds were 4-folds serially diluted in 100% DMSO and added directly to the CDK11A-p58 solution using the pin tool (V & P Scientific): 0.2 ul of the different compound concentrations in 20 ul of enzyme solution. After an incubation of 30 minutes at r.t., 40 ul of probe solution were added. […] The Pherastar reading is performed after 15 minutes of all components incubation. For each assay, high controls (equivalent to 0% displacement) contain probe, CDK11A-p58, and 0.33% DMSO, whereas low controls (equivalent to 100% displacement) contain only probe and 0.33% DMSO. Controls are used for the Z′ and signal to background evaluation.
The data per each molecule are analyzed by Prism SW or an internally customized version of the SW package “Assay Explorer” which provides sigmoidal fittings of the ten-dilution curves for DC50 determination using a 4 parameters logistic equation:
where x is the logarithm of the inhibitor concentration, y is the response; y starts at bottom and goes to top with a sigmoid shape.

| SMILES | DC50 [µM] |
| --- | --- |
| N#Cc1ccc(Cl)c(-c2ccc3[nH]nc(NC(=O)C4CCCCNC4)c3c2)c1 (centres unmarked) [compound 183, N-[5-(2-Chloro-5-cyanophenyl)-1H-indazol-3-yl]azepane-3-carboxamide hydrochloride] | 0.073 |
| COCCOc1ccc2[nH]nc(NC(=O)[C@@H]3CCCNC3)c2c1 [cpd 228, (3R)-N-[5-(2-Methoxyethoxy)-1H-indazol-3-yl]piperidine-3-carboxamide hydrochloride] | 0.406 |
| CN1CCC(C(=O)Nc2n[nH]c3ccc(-c4c(F)cc(O)cc4F)cc23)CC1 [compound 138, N-[5-(2,6-Difluoro-4-hydroxyphenyl)-1H-indazol-3-yl]-1-methylpiperidine-4-carboxamide trifluoroacetate] | 0.376 |
| CCCCOc1ccc2[nH]nc(NC(=O)[C@@H]3CCCNC3)c2c1 [cpd 231, (3R)-N-(5-Butoxy-1H-indazol-3-yl)piperidine-3-carboxamide hydrochloride] | 0.071 |
| CN1CCC(C(=O)Nc2n[nH]c3ccc(-c4cc([N+](=O)[O-])ccc4Cl)cc23)CC1 [compound 137, N-[5-(2-Chloro-5-nitrophenyl)-1H-indazol-3-yl]-1-methylpiperidine-4-carboxamide trifluoroacetate] | 0.07 |
| COC(=O)c1ccc(Cl)c(-c2ccc3[nH]nc(NC(=O)[C@@H]4CCCNC4)c3c2)c1 [cpd 29, Methyl 4-chloro-3-(3-{[(3R)-piperidin-3-ylcarbonyl]amino}-1H-indazol-5-yl)benzoate hydrochloride] | 0.024 |
| CN1CCC(C(=O)Nc2n[nH]c3ccc(-c4ccc(Cl)cc4Cl)cc23)CC1 [cpd 106, N-[5-(2,4-Dichlorophenyl)-1H-indazol-3-yl]-1-methylpiperidine-4-carboxamide hydrochloride] | 0.259 |
| CN1CCC(C(=O)Nc2n[nH]c3ccc(-c4cccc(F)c4F)cc23)CC1 [cpd 99, N-[5-(2,3-Difluorophenyl)-1H-indazol-3-yl]-1-methylpiperidine-4-carboxamide hydrochloride] | 0.173 |
| CN1CCC(C(=O)Nc2n[nH]c3ccc(-c4ccccc4C#N)cc23)CC1 [cpd 79, N-[5-(2-Cyanophenyl)-1H-indazol-3-yl]-1-methylpiperidine-4-carboxamide p-toluensulfonate] | 0.277 |
| Cc1ccc(-c2ccc3[nH]nc(NC(=O)C4CCN(C)CC4)c3c2)c(F)c1F [compound 132, N-[5-(2,3-Difluoro-4-methylphenyl)-1H-indazol-3-yl]-1-methylpiperidine-4-carboxamide hydrochloride] | 0.409 |
| COC(=O)c1cc(-c2ccc3[nH]nc(NC(=O)[C@@H]4CCCNC4)c3c2)c(F)cc1F [cpd 50, Methyl 2,4-difluoro-5-(3-{[(3R)-piperidin-3-ylcarbonyl]amino}-1H-indazol-5-yl)benzoate hydrochloride] | 0.164 |
| CCCCN1CCC(C(=O)Nc2n[nH]c3ccc(-c4c(Cl)cccc4Cl)cc23)CC1 [cpd 69, 1-Butyl-N-[5-(2,6-dichlorophenyl)-1H-indazol-3-yl]piperidine-4-carboxamide] | 0.122 |
| CNC(=O)c1ccc(Cl)c(-c2ccc3[nH]nc(NC(=O)[C@@H]4CCNC4)c3c2)c1 [cpd 39, (3R)-N-{5-[2-Chloro-5-(methylcarbamoyl)phenyl]-1H-indazol-3-yl}pyrrolidine-3-carboxamide hydrochloride] | 0.044 |
| CN1CCC(C(=O)Nc2n[nH]c3ccc(-c4c(F)ccc(C#N)c4F)cc23)CC1 [compound 134, N-[5-(3-Cyano-2,6-difluorophenyl)-1H-indazol-3-yl]-1-methylpiperidine-4-carboxamide] | 0.125 |
| O=C(Nc1n[nH]c2ccc(-c3cc(F)ccc3C(F)(F)F)cc12)[C@@H]1CCCNC1 [cpd 46, (3R)-N-{5-[5-Fluoro-2-(trifluoromethyl)phenyl]-1H-indazol-3-yl}piperidine-3-carboxamide hydrochloride] | 0.037 |
| CN1CCC(C(=O)Nc2n[nH]c3ccc(-c4cc(F)ccc4C#N)cc23)CC1 [compound 136, N-[5-(2-Cyano-5-fluorophenyl)-1H-indazol-3-yl]-1-methylpiperidine-4-carboxamide hydrochloride] | 0.486 |
| Cc1ccc(Cl)c(-c2ccc3[nH]nc(NC(=O)C4CCN(C)CC4)c3c2)c1F [cpd 72, N-[5-(6-Chloro-2-fluoro-3-methylphenyl)-1H-indazol-3-yl]-1-methylpiperidine-4-carboxamide hydrochloride] | 0.166 |
| NC[C@H]1CC[C@H](C(=O)Nc2n[nH]c3ccc(-c4c(Cl)cccc4Cl)cc23)CC1 [compound 164, trans-4-(Aminomethyl)-N-[5-(2,6-dichlorophenyl)-1H-indazol-3-yl]cyclohexanecarboxamide hydrochloride] | 0.151 |

| SMILES | DC50 [µM] |
| --- | --- |
| Nc1cccc(-c2ccc3[nH]nc(NC(=O)C4CCCNC4)c3c2)c1F (centres unmarked) [cpd 11, N-[5-(3-Amino-2-fluorophenyl)-1H-indazol-3-yl]piperidine-3-carboxamide hydrochloride] | 0.183 |
| COC(=O)c1ccc(C#N)c(-c2ccc3[nH]nc(NC(=O)[C@@H]4CCCNC4)c3c2)c1 [cpd 40, Methyl 4-cyano-3-(3-{[(3R)-piperidin-3-ylcarbonyl]amino}-1H-indazol-5-yl)benzoate hydrochloride] | 0.045 |
| Cc1nc(-c2ccc(Cl)c(-c3ccc4[nH]nc(NC(=O)[C@@H]5CCCNC5)c4c3)c2)no1 [cpd 60, (3R)-N-{5-[2-Chloro-5-(5-methyl-1,2,4-oxadiazol-3-yl)phenyl]-1H-indazol-3-yl}piperidine-3-carboxamide dihydrochloride] | 0.163 |
| CNC1CC(C(=O)Nc2n[nH]c3ccc(-c4ccc(O)cc4Cl)cc23)C1 (centres unmarked) [cpd 63, N-[5-(2-Chloro-4-hydroxyphenyl)-1H-indazol-3-yl]-3-(methylamino)cyclobutanecarboxamide hydrochloride] | 0.048 |
| CN1CCC(C(=O)Nc2n[nH]c3ccc(-c4ccc(O)c(C#N)c4)cc23)CC1 [compound 135, N-[5-(3-Cyano-4-hydroxyphenyl)-1H-indazol-3-yl]-1-methylpiperidine-4-carboxamide hydrochloride] | 0.786 |
| CN1CCC(C(=O)Nc2n[nH]c3ccc(-c4c(F)cc(F)cc4F)cc23)CC1 [compound 123, 1-Methyl-N-[5-(2,4,6-trifluorophenyl)-1H-indazol-3-yl]piperidine-4-carboxamide hydrochloride] | 0.665 |
| CN1CCC(C(=O)Nc2n[nH]c3ccc(-c4ccc(F)cc4)cc23)CC1 [cpd 87, N-[5-(4-Fluorophenyl)-1H-indazol-3-yl]-1-methylpiperidine-4-carboxamide hydrochloride] | 0.988 |
| O=C(Nc1n[nH]c2ccc(-c3cc(Cl)ccc3C(F)(F)F)cc12)C1CCCNC1 (centres unmarked) [cpd 15, N-{5-[5-Chloro-2-(trifluoromethyl)phenyl]-1H-indazol-3-yl}piperidine-3-carboxamide trifluoroacetate] | 0.13 |
| O=C(Nc1n[nH]c2ccc(-c3cc(Cl)ccc3Cl)cc12)C1CCCNC1 (centres unmarked) [cpd 4, N-[5-(2,5-Dichlorophenyl)-1H-indazol-3-yl]piperidine-3-carboxamide hydrochloride] | 0.05 |
| O=C(Nc1n[nH]c2ccc(-c3ccc(C(F)(F)F)cc3Cl)cc12)[C@@H]1CCCNC1 [cpd 44, (3R)-N-{5-[2-Chloro-4-(trifluoromethyl)phenyl]-1H-indazol-3-yl}piperidine-3-carboxamide hydrochloride] | 0.156 |
| N#Cc1ccc(Cl)c(-c2ccc3[nH]nc(NC(=O)C4CN5CCC4CC5)c3c2)c1 (centres unmarked) [compound 188, N-[5-(2-Chloro-5-cyanophenyl)-1H-indazol-3-yl]-1-azabicyclo[2.2.2]octane-3-carboxamide hydrochloride] | 0.275 |
| CN1CCC(C(=O)Nc2n[nH]c3ccc(-c4ccccc4)cc23)CC1 [cpd 93, 1-Methyl-N-(5-phenyl-1H-indazol-3-yl)piperidine-4-carboxamide hydrochloride] | 0.938 |
| O=C(Nc1n[nH]c2ccc(-c3ccccc3Cl)cc12)[C@@H]1CCCNC1 [cpd 47, (3R)-N-[5-(2-Chlorophenyl)-1H-indazol-3-yl]piperidine-3-carboxamide hydrochloride] | 0.038 |
| C[C@@H]1CC[C@@H](C(=O)Nc2n[nH]c3ccc(-c4c(Cl)cccc4Cl)cc23)CN1 [compound 178, (3R,6R)-N-[5-(2,6-Dichlorophenyl)-1H-indazol-3-yl]-6-methylpiperidine-3-carboxamide trifluoroacetate] | 0.028 |
| CC(C)C(OC(=O)N1CCC[C@@H](C(=O)Nc2n[nH]c3ccc(-c4cc(C#N)ccc4Cl)cc23)C1)OC(=O)C(C)(C)C (stereo partly drawn) [compound 197, 1-[(2,2-Dimethylpropanoyl)oxy]-2-methylpropyl (3R)-3-{[5-(2-chloro-5-cyanophenyl)-1H-indazol-3-yl]carbamoyl}piperidine-1-carboxylate] | 0.9 |
| CC(C)OC(=O)n1nc(NC(=O)[C@@H]2CCC(C)(C)NC2)c2cc(-c3cc(C#N)ccc3Cl)ccc21 (single isomer, unassigned) [cpd 226, hydrochloride] | 1.01 |
| O=C(Nc1n[nH]c2ccc(-c3c(Cl)cccc3Cl)cc12)C1CCN(C2CC2)CC1 [compound 158, 1-Cyclopropyl-N-[5-(2,6-dichlorophenyl)-1H-indazol-3-yl]piperidine-4-carboxamide hydrochloride] | 0.695 |

Reference: patent publication US20250206724A1, “SUBSTITUTED 3-AMINO INDAZOLE DERIVATIVES AS KINASE INHIBITORS” (NERVIANO MEDICAL SCIENCES S.R.L., priority 2022, published 2025)
